Eight compounds from US11780893B2, “Kv1.3 blockers” (Zealand Pharma A/S, priority 2019, dated 2023) can be followed below.

Assay [1] deals with T1, human Kv1.3 voltage-gated K+ channel (Homo sapiens, UniProt P22001).
T1 construct: host or cells: CHO-DUKX
In words: cell-based. Conditions: inhibition of thallium flux, CHO-DUKX cells with human Kv1.3; read-out: IC50.

In the next assay the target is Rat whole blood (Rattus norvegicus, UniProt P15384).
Setting [2] is: inhibition of IL-17A release, thapsigargin, 24 Hr, at least 2 replicates.

Where two headings read alike, the source gives them in different places. Bridge positions count the residues as written; N and C are the ends. Square brackets hold non-standard residues; d marks the D form. Peptide text beside a SMILES is read from it. Aad = N[C@@H](CCCC(=O)O)C(=O)O; hLys = NCCCCC[C@H](N)C(=O)O; Nle = CCCC[C@H](N)C(=O)O; Abu = CC[C@H](N)C(=O)O Bounds are passed on as bounds.

T1 sequence (P22001 whole entry): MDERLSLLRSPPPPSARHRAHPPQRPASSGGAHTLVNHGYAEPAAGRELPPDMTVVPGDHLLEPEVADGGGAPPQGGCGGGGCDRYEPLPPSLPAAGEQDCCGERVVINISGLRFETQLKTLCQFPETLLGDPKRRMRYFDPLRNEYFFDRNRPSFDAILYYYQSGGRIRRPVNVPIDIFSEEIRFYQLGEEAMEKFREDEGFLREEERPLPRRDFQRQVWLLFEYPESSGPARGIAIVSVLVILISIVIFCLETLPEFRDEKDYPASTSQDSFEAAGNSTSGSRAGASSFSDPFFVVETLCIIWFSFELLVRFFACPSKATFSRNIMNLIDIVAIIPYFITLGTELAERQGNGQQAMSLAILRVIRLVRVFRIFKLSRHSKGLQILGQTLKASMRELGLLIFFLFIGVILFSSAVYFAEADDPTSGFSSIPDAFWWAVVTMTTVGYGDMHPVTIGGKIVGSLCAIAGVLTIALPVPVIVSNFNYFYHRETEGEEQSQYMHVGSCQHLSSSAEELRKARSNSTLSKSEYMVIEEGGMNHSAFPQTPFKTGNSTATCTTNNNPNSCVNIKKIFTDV
Rat whole blood, sequence (P15384 whole entry): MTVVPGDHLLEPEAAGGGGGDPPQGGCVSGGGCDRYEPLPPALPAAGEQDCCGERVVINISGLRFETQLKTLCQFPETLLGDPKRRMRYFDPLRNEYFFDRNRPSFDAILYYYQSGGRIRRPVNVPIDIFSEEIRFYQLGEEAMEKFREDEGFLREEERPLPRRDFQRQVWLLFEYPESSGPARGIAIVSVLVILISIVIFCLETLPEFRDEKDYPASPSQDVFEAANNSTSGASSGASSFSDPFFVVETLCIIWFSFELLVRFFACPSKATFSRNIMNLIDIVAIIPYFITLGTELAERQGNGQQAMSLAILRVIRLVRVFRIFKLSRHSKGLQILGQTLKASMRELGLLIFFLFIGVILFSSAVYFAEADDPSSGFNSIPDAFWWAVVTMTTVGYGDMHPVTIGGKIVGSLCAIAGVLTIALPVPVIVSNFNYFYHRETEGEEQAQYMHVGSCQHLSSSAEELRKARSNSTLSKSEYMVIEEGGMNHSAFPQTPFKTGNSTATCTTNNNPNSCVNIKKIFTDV

Broadly, the IC50 is the concentration that inhibits the measured activity by half. As for `CCCC[C@H](NC(=O)[C@H](CC(=O)O)NC(=O)[C@H](CCCC)NC(=O)[C@@H](N)CO)C(=O)N[C@@H](CCCNC(=N)N)C(=O)N[C@H]1CSSC[C@@H]2NC(=O)[C@H](CCCCN)NC(=O)CNC(=O)[C@H](Cc3ccccc3)NC(=O)[C@H]([C@@H](C)CC)NC(=O)[C@H](CO)NC(=O)CNC(=O)[C@H]([C@@H](C)CC)NC(=O)[C@H](C)NC(=O)[C@H](CCCCN)NC(=O)[C@H](CC(C)C)NC(=O)[C@@H]3CSSC[C@@H](C(=O)N[C@@H](Cc4ccc(O)cc4)C(=O)N4CCC[C@H]4C(=O)N[C@@H](CCCNC(=N)N)C(N)=O)NC(=O)[C@H](CCCCN)NC(=O)[C@H](CSSC[C@H](NC(=O)[C@H](CCC(=O)O)NC(=O)[C@H](C(C)C)NC(=O)[C@H](CC)NC(=O)[C@H](C)NC(=O)[C@H](CO)NC1=O)C(=O)N[C@@H](CCCCN)C(=O)N[C@@H](CCC(N)=O)C(=O)N[C@@H](CCCCN)C(=O)N3)NC(=O)[C@H](CCCCN)NC(=O)[C@H](CCCCN)NC(=O)[C@H](CC(N)=O)NC(=O)[C@H](CCSC)NC2=O` [Compound 68] (H-S[Nle]D[Nle]RCSA[Abu]VECKQKCLKAIGSIFGKCMNKKCKCYPR-NH2; disulfide 6-27, 12-32, 16-34), the IC50 in assay [1] is 0.2 nM; at Rat whole blood it was at most 1 nM; against Rat whole blood (setting [2]) it was 0.93 nM.
Take `CCCC[C@H](NC(=O)[C@H](CC(=O)O)NC(=O)[C@H](CCCC)NC(=O)[C@@H](N)CO)C(=O)N[C@@H](CCCNC(=N)N)C(=O)N[C@H]1CSSC[C@@H]2NC(=O)[C@H](CCCCCN)NC(=O)CNC(=O)[C@H](Cc3ccccc3)NC(=O)[C@H]([C@@H](C)CC)NC(=O)[C@H](CO)NC(=O)CNC(=O)[C@H]([C@@H](C)CC)NC(=O)[C@H](C)NC(=O)[C@H](CCCCN)NC(=O)[C@H](CC(C)C)NC(=O)[C@@H]3CSSC[C@@H](C(=O)N[C@@H](Cc4ccc(O)cc4)C(=O)N4CCC[C@H]4C(=O)N[C@@H](CCCNC(=N)N)C(N)=O)NC(=O)[C@H](CCCCN)NC(=O)[C@H](CSSC[C@H](NC(=O)[C@H](CCC(=O)O)NC(=O)[C@H](C(C)C)NC(=O)[C@H](CO)NC(=O)[C@H](C)NC(=O)[C@H](CO)NC1=O)C(=O)N[C@@H](CCCCN)C(=O)N[C@@H](CCC(N)=O)C(=O)N[C@@H](CCCCN)C(=O)N3)NC(=O)[C@H](CCCCN)NC(=O)[C@H](CCCCN)NC(=O)[C@H](CC(N)=O)NC(=O)[C@H](CCSC)NC2=O` [Compound 69] (H-S[Nle]D[Nle]RCSASVECKQKCLKAIGSIFG[hLys]CMNKKCKCYPR-NH2; disulfide 6-27, 12-32, 16-34): the figures for the IC50 (in assay [1]; against Rat whole blood (setting [2])) were 0.58 nM and 2.7 nM, respectively.
As for `CCCC[C@H](NC(=O)[C@H](CC(=O)O)NC(=O)[C@H](CCCC)NC(=O)[C@@H](N)CO)C(=O)N[C@@H](CCCNC(=N)N)C(=O)N[C@H]1CSSC[C@@H]2NC(=O)[C@H](CCCCN)NC(=O)CNC(=O)[C@H](Cc3ccccc3)NC(=O)[C@H]([C@@H](C)CC)NC(=O)[C@H](CO)NC(=O)CNC(=O)[C@H]([C@@H](C)CC)NC(=O)[C@H](C)NC(=O)[C@H](CCCCN)NC(=O)[C@H](CC(C)C)NC(=O)[C@@H]3CSSC[C@@H](C(=O)N[C@@H](Cc4ccc(O)cc4)C(=O)N4CCC[C@H]4C(=O)N[C@@H](CCCNC(=N)N)C(N)=O)NC(=O)[C@H](CCCCN)NC(=O)[C@H](CSSC[C@H](NC(=O)[C@H](CCC(=O)O)NC(=O)[C@H](C(C)C)NC(=O)[C@H](CO)NC(=O)[C@H](C)NC(=O)[C@H](CO)NC1=O)C(=O)N[C@@H](C(C)C)C(=O)N[C@@H](CCC(N)=O)C(=O)N[C@@H](CCCCN)C(=O)N3)NC(=O)[C@H](CCCCN)NC(=O)[C@H](CCCCN)NC(=O)[C@H](CC(N)=O)NC(=O)[C@H](CCSC)NC2=O` [Compound 72] (H-S[Nle]D[Nle]RCSASVECVQKCLKAIGSIFGKCMNKKCKCYPR-NH2; disulfide 6-27, 12-32, 16-34), the results for the IC50 (in assay [1]; against Rat whole blood; against Rat whole blood (setting [2])) were 0.19 nM, at most 1 nM and 0.47 nM, respectively.
Taken in the same sequence, the figures for `CCCC[C@H](NC(=O)[C@H](CC(=O)O)NC(=O)[C@H](CCCC)NC(=O)[C@@H](N)CO)C(=O)N[C@@H](CCCNC(=N)N)C(=O)N[C@H]1CSSC[C@@H]2NC(=O)[C@H](CCCCN)NC(=O)CNC(=O)[C@H](Cc3ccccc3)NC(=O)[C@H]([C@@H](C)CC)NC(=O)[C@H](CO)NC(=O)CNC(=O)[C@H]([C@@H](C)CC)NC(=O)[C@H](C)NC(=O)[C@H](CCCCN)NC(=O)[C@H](CC(C)C)NC(=O)[C@@H]3CSSC[C@@H](C(=O)N[C@@H](Cc4ccc(O)cc4)C(=O)N4CCC[C@H]4C(=O)N[C@@H](CCCNC(=N)N)C(N)=O)NC(=O)[C@H](CCCCN)NC(=O)[C@H](CSSC[C@H](NC(=O)[C@H](CCC(=O)O)NC(=O)[C@H](C(C)C)NC(=O)[C@H](CO)NC(=O)[C@H](C)NC(=O)[C@H](CO)NC1=O)C(=O)N[C@@H](CCCCN)C(=O)N[C@@H](CCCC(=O)O)C(=O)N[C@@H](CCCCN)C(=O)N3)NC(=O)[C@H](CCCCN)NC(=O)[C@H](CCCCN)NC(=O)[C@H](CC(N)=O)NC(=O)[C@H](CCSC)NC2=O` [Compound 73] (H-S[Nle]D[Nle]RCSASVECK[Aad]KCLKAIGSIFGKCMNKKCKCYPR-NH2; disulfide 6-27, 12-32, 16-34) were 0.11 nM, at most 1 nM and 0.52 nM.
For the compound `CCCC[C@H](NC(=O)[C@H](CC(=O)O)NC(=O)[C@H](CCCC)NC(=O)[C@@H](N)CO)C(=O)N[C@@H](CCCNC(=N)N)C(=O)N[C@H]1CSSC[C@@H]2NC(=O)[C@H](CCCCN)NC(=O)CNC(=O)[C@H](Cc3ccccc3)NC(=O)[C@H]([C@@H](C)CC)NC(=O)[C@H](CO)NC(=O)CNC(=O)[C@H]([C@@H](C)CC)NC(=O)[C@H](C)NC(=O)[C@H](CCCCN)NC(=O)[C@H](CC(C)C)NC(=O)[C@@H]3CSSC[C@@H](C(=O)N[C@@H](Cc4ccc(O)cc4)C(=O)N[C@@H](CCC(N)=O)C(N)=O)NC(=O)[C@H](CCCCN)NC(=O)[C@H](CSSC[C@H](NC(=O)[C@H](CCC(=O)O)NC(=O)[C@H](C(C)C)NC(=O)[C@H](CO)NC(=O)[C@H](C)NC(=O)[C@H](CO)NC1=O)C(=O)N[C@@H](CCCCN)C(=O)N[C@@H](CCC(N)=O)C(=O)N[C@@H](CCCCN)C(=O)N3)NC(=O)[C@H](CCCCN)NC(=O)[C@H](CCCCN)NC(=O)[C@H](CC(N)=O)NC(=O)[C@H](CCSC)NC2=O` [Compound 74] (H-S[Nle]D[Nle]RCSASVECKQKCLKAIGSIFGKCMNKKCKCYQ-NH2; disulfide 6-27, 12-32, 16-34), the values for the IC50 (in assay [1]; against Rat whole blood (setting [2])) were 0.36 nM and 1.6 nM, respectively.
As to `CCCC[C@H](NC(=O)[C@H](CC(=O)O)NC(=O)[C@H](CCCC)NC(=O)[C@@H](N)CO)C(=O)N[C@@H](CCCNC(=N)N)C(=O)N[C@H]1CSSC[C@@H]2NC(=O)[C@H](CCCCN)NC(=O)CNC(=O)[C@H](Cc3ccccc3)NC(=O)[C@H]([C@@H](C)CC)NC(=O)[C@H](CO)NC(=O)CNC(=O)[C@H]([C@@H](C)CC)NC(=O)[C@H](C)NC(=O)[C@H](C(C)C)NC(=O)[C@H](CC(C)C)NC(=O)[C@@H]3CSSC[C@@H](C(=O)N[C@@H](Cc4ccc(O)cc4)C(=O)N4CCC[C@H]4C(=O)N[C@@H](CCCNC(=N)N)C(N)=O)NC(=O)[C@H](CCCCN)NC(=O)[C@H](CSSC[C@H](NC(=O)[C@H](CCC(=O)O)NC(=O)[C@H](C(C)C)NC(=O)[C@H](CO)NC(=O)[C@H](C)NC(=O)[C@H](CO)NC1=O)C(=O)N[C@@H](CCCCN)C(=O)N[C@@H](CCC(N)=O)C(=O)N[C@@H](CCCCN)C(=O)N3)NC(=O)[C@H](CCCCN)NC(=O)[C@H](CCCCN)NC(=O)[C@H](CC(N)=O)NC(=O)[C@H](CCSC)NC2=O` [Compound 78] (H-S[Nle]D[Nle]RCSASVECKQKCLVAIGSIFGKCMNKKCKCYPR-NH2; disulfide 6-27, 12-32, 16-34), the IC50 in assay [1] is 0.12 nM; on Rat whole blood it was at most 1 nM; on Rat whole blood (setting [2]), 0.39 nM.
As to `CCCC[C@@H]1NC(=O)[C@@H]2CSSC[C@H](NC(=O)[C@H](CCCNC(=N)N)NC(=O)[C@H](CCCC)NC(=O)[C@H](CC(=O)O)NC(=O)[C@H](CCCC)NC(=O)[C@@H](N)CO)C(=O)N[C@@H](CO)C(=O)N[C@@H](C)C(=O)N[C@@H](CO)C(=O)N[C@@H](C(C)C)C(=O)N[C@@H](CCC(=O)O)C(=O)N[C@H]3CSSC[C@H](NC(=O)[C@H](CCCCN)NC(=O)[C@H](CCCCN)NC(=O)[C@H](CC(N)=O)NC1=O)C(=O)N[C@@H](CCCCN)C(=O)N[C@H](C(=O)N[C@@H](Cc1ccc(O)cc1)C(=O)N1CCC[C@H]1C(=O)N[C@@H](CCCNC(=N)N)C(=O)O)CSSC[C@H](NC(=O)[C@H](CCCCN)NC(=O)[C@H](CCC(N)=O)NC(=O)[C@H](CCCCN)NC3=O)C(=O)N[C@@H](CC(C)C)C(=O)N[C@@H](CCCCN)C(=O)N[C@@H](C)C(=O)N[C@@H]([C@@H](C)CC)C(=O)NCC(=O)N[C@@H](CO)C(=O)N[C@@H]([C@@H](C)CC)C(=O)N[C@@H](Cc1ccccc1)C(=O)NCC(=O)N[C@@H](CCCCN)C(=O)N2` [Compound 82] (H-S[Nle]D[Nle]RCSASVECKQKCLKAIGSIFGKC[Nle]NKKCKCYPR-OH; disulfide 6-27, 12-32, 16-34), the half-inhibitory concentration (IC50) in assay [1] was 0.49 nM; against Rat whole blood, at most 1 nM; at Rat whole blood (setting [2]), 0.52 nM.
The corresponding values for `CCCC[C@@H]1NC(=O)[C@@H]2CSSC[C@H](NC(=O)[C@H](CCCNC(=N)N)NC(=O)[C@H](CCCC)NC(=O)[C@H](CC(=O)O)NC(=O)[C@H](CCCC)NC(=O)[C@@H](N)CO)C(=O)N[C@@H](CO)C(=O)N[C@@H](C)C(=O)N[C@@H](CO)C(=O)N[C@@H](C(C)C)C(=O)N[C@@H](CCC(=O)O)C(=O)N[C@H]3CSSC[C@H](NC(=O)[C@H](CCCCN)NC(=O)[C@H](CCCCN)NC(=O)[C@H](CC(N)=O)NC1=O)C(=O)N[C@@H](CCCCN)C(=O)N[C@H](C(=O)N[C@@H](Cc1ccc(O)cc1)C(=O)N1CCC[C@H]1C(=O)N[C@@H](CCCNC(=N)N)C(N)=O)CSSC[C@H](NC(=O)[C@H](CCCCN)NC(=O)[C@H](CCC(=O)O)NC(=O)[C@H](CCCCN)NC3=O)C(=O)N[C@@H](CC(C)C)C(=O)N[C@@H](CCC(N)=O)C(=O)N[C@@H](C)C(=O)N[C@@H]([C@@H](C)CC)C(=O)NCC(=O)N[C@@H](CO)C(=O)N[C@@H]([C@@H](C)CC)C(=O)N[C@@H](Cc1ccccc1)C(=O)NCC(=O)N[C@@H](CCCCN)C(=O)N2` [Compound 84] (H-S[Nle]D[Nle]RCSASVECKEKCLQAIGSIFGKC[Nle]NKKCKCYPR-NH2; disulfide 6-27, 12-32, 16-34) are 0.084 nM, at most 1 nM and 0.69 nM.
